Results published in patent US20250262209A1, “TREATMENT OF GASTROINTESTINAL DISEASES” (Aclipse Two, Inc., priority 2022, published 2025).

What was measured:
Assay type in all cases: cell-based, human
[1] = test system: monocytes from PBMC differentiated into M2 macrophage; test: M2 macrophage differentiation assay; conditions: CD163, CD11c, CD206; donor 1 and 2
Text: The purpose of this study was to evaluate the effects of lobeglitazone and other thiazolidinediones on M2 macrophage differentiation. The test articles and vehicles used in this study were lobeglitazone sulfate, pioglitazone HCl, and rosiglitazone.
M2 macrophage differentiation assay timeline was as follows in Table 10.
• (1) Isolate monocytes from PBMC using StemCell® monocyte isolation kit • (2) Count cell and adjust the cell density to 0.5×10^6 cells/ml with fresh complete differentiation medium. Add 5 μL M-CSF stock ([…]) to each 5 ml cell mixture. • (3) Seed isolated monocyte 100 μL per well on 96-well plate. • (4) Add test articles as the plate map using D300e (final concentration in μM). • (5) Differentiate the monocyte to macrophage in the presence of M-CSF to […] for 4 days. • (6) On day 4, add additional medium containing M-CSF. • (7) Add test compounds using D300e (final volume=[…]). • (8) On day 6, add IL-4 at 5× final concentration (IL-4 stock 0.1 mg/ml: dilute 10 μl stock into 10 ml medium for 100 ng/ml. Add 50 μl 100 ng/ml IL-4 to each well containing 200 μL medium to reach 20 ng/ml). • (9) On day 8, spin down the plates at 300×g for 5 min and collect the supernatant for cytokine quantification using MSD. • (10) M2 associated macrophage cytokines of interest are listed below in Table 12.
• (11) Collect cells for flow analysis of viability/CD11c/CD163/CD206.
Flow cytometry and surface marker CD163, CD11c, and CD206 were applied to characterize M2 repolarization. No stain and all stain with surface marker antibody to confirm the optimization of gating strategy.

[2] = test system: monocytes differentiated to M1 macrophage; test: M1 macrophage differentiation assay; conditions: TNF-α, IL-1b, IL-6, IL-12, IL-23 in supernatant on day 7 (MSD); concentrations of Table 9
Text: The purpose of this study was to evaluate the effects of lobeglitazone and other thiazolidinediones on M1 macrophage differentiation. The test articles and vehicles used in this study were lobeglitazone sulfate, pioglitazone HCl, and rosiglitazone.
M1 macrophage differentiation assay timeline was as follows in Table 8.
Drug concentrations tested in the M1 differentiation assay are as in Table 9.
• (1) Revive frozen monocytes. • (2) Count cells and adjust the cell density to 0.5×10^6 cells/ml with fresh complete differentiation medium (RPMI1640+10% FBS+1% PS plus GM-CSF or M-CSF at 50 ng/ml). • (3) Seed isolated monocyte 100 μL per well on 96-well plate. • (4) Add test articles as the plate map using D300e (final concentration in μM). • (5) Differentiate the monocyte to macrophage in the presence of GM-CSF to M1, or M-CSF to M2 for 5 days. • (6) On day 5, add cytokines at 2× final concentration. • (6a) Prepare medium containing GM-CSF for M1 and M-CSF for M2. • (6b) Add corresponding activator to reach 2× final working concentration: (i) IFNγ stock 0.2 mg/ml: add 2.5 μL stock into 5 ml complete differentiation medium for 100 ng/ml; (ii) LPS stock 1.0 mg/ml: dilute to 20 μg/ml by mixing 2 μL stock into 100 μl medium; then add 10 μl 20 μg/ml LPS to 5 ml complete differentiation medium for 40 ng/ml; (iii) IL-4 stock 0.1 mg/ml: dilute 2 μL stock into 5 ml complete differentiation medium for 40 ng/ml. • (6c) Add 100 μL cytokine containing differentiating medium to each well, and total volume of each well is 200 μL. • (6d) Add test compound again using D300e. Make sure to set the final volume as 200 μL. • (7) Incubate cytokine and test compound for 48 hours. • (8) On day 7, spin down the plates at 300×g for 5 min and collect the supernatant for cytokine quantification using MSD. • (9) M1 associated macrophage cytokines TNF-α, IL-1b, IL-6, IL-12, and IL-23 were quantified.

[3] = test system: monocytes from PBMC, M1-to-M2 macrophage repolarization; test: M1-to-M2 macrophage repolarization assay; conditions: cytokine analysis (MSD), day 14 supernatant
Text: The purpose of this study was to evaluate the effects of lobeglitazone and other thiazolidinediones on M1-to-M2 macrophage repolarization. The test articles and vehicles used in this study were lobeglitazone sulfate, pioglitazone HCl, and rosiglitazone.
M1-to-M2 macrophage repolarization assay timeline were as follows in Table 13.
Drug concentrations tested in the M1 differentiation assay are as in Table 14.
• (1) Isolate monocytes from PBMC using StemCell® monocyte isolation kit. • (2) Count cell and adjust the cell density to 0.5×10^6 cells/ml with fresh complete differentiation medium (add 10 μl M-CSF stock (100 μg/ml) 10 ml cell mixture to a final concentration of 50 ng/ml). • (3) Seed isolated monocyte 100 μL per well on 96-well plate. • (4) On day 4, add additional 100 μl medium containing M-CSF • (5) On day 6, add stimulator at 5× final concentration (200 μL medium in each well) to a final concentration of 50 ng/ml. • (6) On day 8, remove medium and replenish with 200 μL cytokine free medium, then add test compound (final concentration in μM) and incubate for 4 days. • (7) On day 12, add IL-4 and incubate for 2 days (add 50 μL of 100 ng/ml IL-4 to each well containing 200 μL medium to reach 20 ng/ml). • (8) On day 14, spin down the plates at 300×g for 5 min and collect the supernatant for cytokine quantification. • (9) M1 and M2 associated macrophage cytokines of interest are as follows in Table 15.
The cells are then collected for flow analysis of viability/CD11c/CD163/CD206.
Cell surface marker CD163, CD11c, and CD206 were applied to characterize M2 repolarization via flow cytometry. Controls included No stain and staining with all surface marker antibodies to confirm the optimization of gating strategy.

Q: What does the source list for `CN(CCOc1ccc(CC2SC(=O)NC2=O)cc1)c1ccccn1` (racemic) [rosiglitazone, (RS)-5-[4-(2-[methyl(pyridin-2-yl)amino]ethoxy)benzyl]thiazolidine-2,4-dione]?
A: concentration at which M2 repolarization was promoted (M2 macrophage surface markers, flow cytometry) [1]: ~0.4 µM; M1 macrophage cytokines expression [2]: promoted the M1 macrophage cytokines in a dose-dependent manner; concentration showing remarkable promotion of MDC expression [3]: 6.4 µM

Q: With `CCc1ccc(CCOc2ccc(CC3SC(=O)NC3=O)cc2)nc1.Cl` (racemic) [pioglitazone, (±)-5-[p-[2-(5-Ethyl-2-pyridyl)ethoxy]benzyl]-2,4-thiazolidinedione monohydrochloride] as the molecule, how does the “concentration at which M2 repolarization was promoted (M2 macrophage surface markers, flow cytometry)” value [1] read?
A: ~10 µM

Q: And the “M1 macrophage cytokines expression” value [2]?
A: promoted the M1 macrophage cytokines in a dose-dependent manner

Q: And the “concentration showing remarkable promotion of MDC expression” value [3]?
A: 5 µM
